Assay results published in US11800866B2, “Methods for control of pests” (Bio-Gene Technology Limited, priority 2018, dated 2023).
Converted amounts (≈) assume the structure as drawn. Like-named read-outs stand apart in the source and are kept apart here.

Legend:
Assay type in all cases: in vivo
[1] = tested on: green peach aphid (Myzus persicae); assay: leaf dip assay on Chinese cabbage leaves, green peach aphid
Procedure: The efficacy of flavesone against green peach aphid (Myzus persicae) was tested in a similar leaf dip assay as set out in Example 1, but used Chinese cabbage leaves, and 10 to 100,000 mg/L flavesone concentrations. The green peach aphids used were cultured in the laboratory from field collected insects.

[2] = tested on: cotton aphid (Aphis gossypii); assay: field trial, control of cotton aphid in cotton
Procedure: A field trial was conducted on a small plot of cotton in March 2018 to evaluate flavesone for the control of cotton aphid in cotton. The trial was conducted near Burren Junction in the Lower Namoi Valley Region of New South Wales, Australia. The trial was conducted in a crop grown as per standard commercial practice. It was precision planted on hills in rows 1 m apart and furrow flood irrigated. The crop was fully irrigated being watered as required over the duration of the season. The crop matured to produce good yield, typical of the region for the season. Light rainfall occurred at 6 and 7 days after treatment (DAT). The maximum temperature ranged from 28 to 38° C. and minimum temperature ranged from 14 to 23° C.
The plot was 4 m×8 m and four replicates were used. The plot was infested with cotton aphid at a moderate to high level with 36% of leaves infested pre-spray. The population on the untreated cotton increased over the duration of the trial with 83% leaves infested at 7 DAT.
The crop was either left untreated (control), treated with flavesone (Flavocide 500 EW) at varying concentrations or treated with Pirimor® (pirimicarb, positive control) as set out in Table 3:
The test solution was applied by broadcast method using a hand held boom sprayer with nozzles (Spraying Systems TT110015 flat fans) spaced 50 cm apart, with pressure being 250 kPa. Application speed was 1.5 m/s and the application volume was 105 L/ha.
The effectiveness of the application was evaluated on day 0 and 3 and 7 DAT. 20 leaves in the upper canopy of the plants in each plot were inspected and the number of aphids on each leaf recorded. The percentage of leaves infested and the mean number of aphids per leaf was then determined.
Statistical analyses were conducted using GenStat 64-bit Release 17.1 (PC/Windows Server 2008, VSN International Ltd). The model includes all treatment effects. Analysis of variance and least significant difference (LSD) procedures were used. Further means of separation was achieved by transforming the data using Square Root (x+0.5) or Log Base 10.

[3] = tested on: Russian Wheat Aphid (Diuraphis noxia); assay: leaf dip method on wheat leaf segments, Russian Wheat Aphid; conditions: for LC50: concentration giving 50% mortality, 95% CIs
Procedure: The efficacy of flavesone against Russian Wheat Aphid (Diuraphis noxia) was assessed using the leaf dip method described in Moores et al 1994 (Pesticide Biochemistry and Physiology, 49, 114-120), adapted for use with cereal aphids by using wheat leaf segments.
Serially diluted concentrations of flavesone (1 to 30000 mg/L) were tested at rates designed to include the expected field rate in cereals (Table 1), along with a control of water. Leaf segments (25 mm) cut from wheat (Triticum aestivum) plants were submerged for 1 second in the insecticide solutions or water (control), and placed adaxial side up on 10 g/L agar in 35 mm petri dishes. Once leaves were air-dry, eight 3-4 day old D. noxia nymphs were transferred to insecticide-dipped leaf segments using a fine-haired paintbrush. The population used was originally collected from Dingee (VIC) and maintained in the laboratory under a 18:6 LD cycle at 12-20° C. since June 2016.
The petri dishes were then inverted onto a lid containing a 25 mm diameter filter paper to control humidity, and were placed at 18° C.±2° C. with a photoperiod of 16:8 LD cycle. Six replicates were used for each concentration tested, and responses were assessed after 48 and 96 hours. Aphids were scored as alive (vibrant and moving freely), dead (not moving over a 5 second period), or incapacitated (inhibited movement).
Dose-response curves were generated by plotting percentage mortality against log concentration. Mortality data was analysed using a logistic regression model with random effects. Logistic regression is suited for the analysis of binary response data (i.e. dead/alive) with the random effect component of the model controlling for the non-independence of mortality scores within replicates. […] Analyses were conducted using R version 3.3.1 (R Development Core Team 2018, R: A language and environment for statistical computing. R Foundation for Statistical Computing, Vienna, Austria. http//www.R-project.org).

For `CC(C)C(=O)C1C(=O)C(C)(C)C(=O)C(C)(C)C1=O` [Flavesone, 1-isobutyroyl-3,3,5,5-tetramethylcyclohexan-2,4,6-trione], the “toxicity to green peach aphid” value ([1]; 10 to 100,000 mg/L) was “toxic to green peach aphid”, the “concentration at which mortality responses began to increase” value ([1]; 48 hours) was 1000 mg/L and the “concentration at which mortality increased” value ([1]; 96 hours) was 1000 mg/L. For the same compound, the mortality at 10000 µg/mL ([1]; Myzus persicae, foliar, 10,000 mg/L, 96 hours) was 100%, the mortality at 30000 µg/mL ([1]; Myzus persicae, foliar, 30,000 mg/L, 48 hours exposure) was 100% and the “Mean Number of Cotton Aphid per leaf” value ([2]; 0.1% v/v, 0 DAT (pre-spray)) was 1.5 ab. For the same compound, the “Mean Percentage of Leaves infested with cotton Aphid” value (from here on “Mean Percentage of Leaves infested”) ([2]; 0.1% v/v, 0 DAT (pre-spray)) was 34%, the “Mean Number of Cotton Aphid per leaf” value ([2]; 0.1% v/v, 3 DAT) was 1.1 ab and the “Mean Percentage of Leaves infested” value ([2]; 0.1% v/v, 3 DAT) was 15%. For the same compound, the “Mean Number of Cotton Aphid per leaf” value ([2]; 0.1% v/v, 7 DAT) was 2.5 bc, the “Mean Percentage of Leaves infested” value ([2]; 0.1% v/v, 7 DAT) was 43 c % and the “Mean Number of Cotton Aphid per leaf” value ([2]; 0.25% v/v, 0 DAT (pre-spray)) was 2.6 b. For the same compound, the “Mean Percentage of Leaves infested” value ([2]; 0.25% v/v, 0 DAT (pre-spray)) was 43%, the “Mean Number of Cotton Aphid per leaf” value ([2]; 0.25% v/v, 3 DAT) was 2.1 ab and the “Mean Percentage of Leaves infested” value ([2]; 0.25% v/v, 3 DAT) was 39%. For the same compound, the “Mean Number of Cotton Aphid per leaf” value ([2]; 0.25% v/v, 7 DAT) was 3.1 c, the “Mean Percentage of Leaves infested” value ([2]; 0.25% v/v, 7 DAT) was 38 bc % and the “Mean Number of Cotton Aphid per leaf” value ([2]; 0.50% v/v, 0 DAT (pre-spray)) was 1.1 . . . ab. For the same compound, the “Mean Percentage of Leaves infested” value ([2]; 0.50% v/v, 0 DAT (pre-spray)) was 30%, the “Mean Number of Cotton Aphid per leaf” value ([2]; 0.50% v/v, 3 DAT) was 1.0 ab and the “Mean Percentage of Leaves infested” value ([2]; 0.50% v/v, 3 DAT) was 19%. For the same compound, the “Mean Number of Cotton Aphid per leaf” value ([2]; 0.50% v/v, 7 DAT) was 2.4 bc, the “Mean Percentage of Leaves infested” value ([2]; 0.50% v/v, 7 DAT) was 40 c % and the “Mean Number of Cotton Aphid per leaf” value ([2]; 0.75% v/v, 0 DAT (pre-spray)) was 1.4 ab. For the same compound, the “Mean Percentage of Leaves infested” value ([2]; 0.75% v/v, 0 DAT (pre-spray)) was 33%, the “Mean Number of Cotton Aphid per leaf” value ([2]; 0.75% v/v, 3 DAT) was 3.4 b and the “Mean Percentage of Leaves infested” value ([2]; 0.75% v/v, 3 DAT) was 34%. For the same compound, the “Mean Number of Cotton Aphid per leaf” value ([2]; 0.75% v/v, 7 DAT) was 2.7 bc, the “Mean Percentage of Leaves infested” value ([2]; 0.75% v/v, 7 DAT) was 50 c % and the “Mean Number of Cotton Aphid per leaf” value ([2]; 1.00% v/v, 0 DAT (pre-spray)) was 0.6 a. The “Mean Percentage of Leaves infested” value ([2]; 1.00% v/v, 0 DAT (pre-spray)) was 26%, the “Mean Number of Cotton Aphid per leaf” value ([2]; 1.00% v/v, 3 DAT) was 0.2 a and the “Mean Percentage of Leaves infested” value ([2]; 1.00% v/v, 3 DAT) was 9%. The “Mean Number of Cotton Aphid per leaf” value ([2]; 1.00% v/v, 7 DAT) was 1.0 ab, the “Mean Percentage of Leaves infested” value ([2]; 1.00% v/v, 7 DAT) was 19 b % and the “control of cotton aphid” value ([2]; highest 1% v/v rate) was “slightly better control”. The “toxicity to D. noxia” value ([3]; 1-30,000 mg a.i./L) was “toxic to D. noxia”, the LC50 ([3]; Diuraphis noxia, foliar, exposure time not given, read-out: LC50) was 405 µg/mL (≈ 1610 µM) and the mortality at 3000 µg/mL ([3]; Diuraphis noxia, foliar, 3,000 mg a.i./L, largest increase, read-out: increase of mortality between 48 and 96 hours) was 58%. The mortality at 30000 µg/mL ([3]; Diuraphis noxia, foliar, 30,000 mg a.i./L, 48 hours exposure) was 100%, the LC50 ([3]; exposure time not given) was 405.4 mg a.i./L and the LC90 ([3]; concentration giving 90% mortality, exposure time not given) was 1.5 × 10^4 mg a.i./L. For the same compound, the LC99 ([3]; concentration giving 99% mortality, exposure time not given) was 8.1 × 10^5 mg a.i./L and the “concentration at which mortality began to increase” value ([3]; in vivo) was 300 mg a.i./L.
